{
  "source": "patent US6180385A",
  "about": "(priority 1996, dated 2001)",
  "key": {"Lb proteinase [1]": {"biological_target": "T1, Lb proteinase (Foot-and-mouth disease virus serotype O, UniProt P03305)", "T1 sequence (P03305 29-201 limits assumed)": "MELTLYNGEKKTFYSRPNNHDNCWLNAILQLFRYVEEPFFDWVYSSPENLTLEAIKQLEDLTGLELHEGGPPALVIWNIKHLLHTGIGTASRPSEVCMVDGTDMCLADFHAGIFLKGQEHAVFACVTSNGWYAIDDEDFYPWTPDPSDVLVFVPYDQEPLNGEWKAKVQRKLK", "format": "biochemical, FMDV"}, "Lb proteinase [2]": {"biological_target": "T1, Lb proteinase"}, "L proteinase": {"test_system": "L proteinase", "conditions": "cited from earlier work"}},
  "data": [
    {"molecule": "CCCCCCCCCCCCOS(=O)(=O)O", "note": "[SDS]", "values": [
      {"measurement": "cleavage of peptide LVP4-1 by Lb proteinase in the presence of inhibitor", "setting": "Lb proteinase [1]", "result": "No cleavage"},
      {"measurement": "inhibition of cleavage of peptides P89, p220-4 and p220-6 by Lb proteinase", "setting": "Lb proteinase [1]", "result": "complete inhibition"}
    ]},
    {"molecule": "Ac-T*R*P I I T T A G P S D M Y V H-NH2 [Peptide P89]", "values": [
      {"measurement": "cleavage of peptide in the absence of SDS (controls)", "setting": "Lb proteinase [2]", "result": "efficient cleavage"},
      {"measurement": "peptide cleaved by Lb (qualitative)", "setting": "Lb proteinase [2]", "result": "cleaved"}
    ]},
    {"molecule": "CC(C)CC(NC(=O)C1OC1C(=O)O)C(=O)NCCCCN=C(N)N", "note": "(stereo not shown) [Peptide E64, E64]", "values": [
      {"measurement": "effect on the L proteinase", "setting": "L proteinase", "result": "inhibition"}
    ]},
    {"molecule": "G R T T L S T R*G P P R G G P G [p220-4]", "values": [
      {"measurement": "cleavage of peptide in the absence of SDS (controls)", "setting": "Lb proteinase [2]", "result": "efficient cleavage"},
      {"measurement": "peptide cleaved by Lb (qualitative)", "setting": "Lb proteinase [2]", "result": "cleaved"}
    ]},
    {"molecule": "T P S F A N L G*R T T L S T R G [p220-6]", "values": [
      {"measurement": "FMDV Lb cleavage site on the peptide (* indicates cleavage site)", "setting": "Lb proteinase [2]", "result": "G*R"},
      {"measurement": "cleavage of peptide in the absence of SDS (controls)", "setting": "Lb proteinase [2]", "result": "efficient cleavage"},
      {"measurement": "peptide cleaved by Lb (qualitative)", "setting": "Lb proteinase [2]", "result": "cleaved"}
    ]}
  ]
}
